The values that follow come from ChEMBL document CHEMBL1201862, “PubChem BioAssay data set” (2004).

Active and inactive are the calls of the source.

The nature of assay [1]: A cytotoxicity screen of small molecule inhibitors of the PhoP region in Salmonella typhi identified in the primary screen. [Related pubchem assays: 1850, 1864, 1985 ]. The assay is classed as functional.
For assay [2], the target named is Prothrombin (Homo sapiens, UniProt P00734). The assay can be described thus: Thrombin 1536 HTS Dose Response Confirmation. [Related pubchem assays: 1046 (Thrombin 1536 HTS; hits were confirmed in this assay)]. The assay is classed as functional.
Assay [3] concerns the target T1, Polyadenylate-binding protein 1 (Homo sapiens, UniProt P11940). The assay can be described thus: MLLE binding blockers, Cy5 peptide tracer – biochemical, fluorescence polarization, Cy5-PAM2 peptide, secondary, miRNA deadenylation inhibitor project, dose response (AID 602260). In kind it is functional. The following applies: read-out: IC50_Mean. (In general: In fluorescence polarisation assays a small probe gives low polarisation when free and higher when bound to something large.)

For assay [4], the target named is T1, Polyadenylate-binding protein 1. Briefly: MLLE domain peptide-binding blockers, IC50 – biochemical, fluorescence polarization, FITC-PAM2 peptide, dose response (AID 602259). In kind it is functional. The following applies: read-out: IC50_Mean.
Assay [5] concerns the target Fructose-bisphosphate aldolase (Mycobacterium tuberculosis, UniProt P9WQA3). The assay can be described thus: Fluorescence-based biochemical high throughput dose response assay for inhibitors of the fructose-bisphosphate aldolase (FBA) of M. tuberculosis. The assay is classed as functional.
Assay [6] is described as follows: viability loss in HEK293T cells – cell-based, cherry-picks, cytotoxicity control for HIV Vif inhibitor project, dose response (AID 652208). The assay is classed as functional.
Assay [7] is described as follows: Trypanosoma cruzi growth suppression in host cells – NIH3T3 host cells, beta-gal luminescence, confirmation (AID 2044).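 Note: intracellular parasites grown in NIH/3T3 mouse fibroblasts as host cells; luminescent beta-galactosidase reporter signal from transgenic T. cruzi replicating inside host cells; inhibitors lower the luminescence signal.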 In kind it is functional, cell-based.
Assay [8] is described as follows: NIH3T3 cell viability loss – ATP luminescence, mouse fibroblasts, counter-screen, dose response (AID 2010).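 Note: cells exposed to compound for about 90 hours before reading.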 In kind it is functional, cell-based. A general note: Counterscreens check selectivity or assay interference.
Assay [9] addresses Nonstructural protein 1 (Influenza A virus, UniProt Q194T2). In kind it is functional, Influenza A virus (A/California/07/2009(H1N1)).
The subject of assay [10] is INS1. The assay can be described thus: INS-1E survival protection against cytokine death – cell-based, luminescence, retest, dose response (AID 449756).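 Note: cell death triggered by IL-1 beta plus TNF-alpha plus IFN-gamma mixture; protective hits raise ATP signal compared with cytokine alone wells.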 The assay is classed as functional. The following applies: Rattus norvegicus.
A short description of assay [11]: reduction of Shn3 3'UTR-driven luciferase in osteoblasts – cell-based, Clone20 osteoblasts, firefly luciferase, cherry-picked, dose response (AID 624132).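 Note: firefly luciferase luminescence from reporter carrying the Shn3 3'UTR in osteoblasts.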 In kind it is functional.
Assay [12] is described as follows: loss of viability in HepG2 cells – cell-based, CellTiter-Glo, cherry-picked, cytotoxicity control for Shn3 inhibitor project, dose response (AID 624134). In kind it is functional. (In ATP-based viability assays light output follows the ATP content of the culture.)
The nature of assay [13]: non-specific 3'UTR reporter inhibition in Clone20-Shn3RL – cell-based, Renilla luciferase, cherry-picked, counter-screen for Shn3 inhibitor project, dose response (AID 624133). The assay is classed as functional.
The target in assay [14] is Protein S100-A4 (Homo sapiens, UniProt P26447). The assay can be described thus: human S100A4 peptide interaction inhibition curves – biochemical, fluorescence polarization, cherry-picked hits, dose response (AID 687001). The assay is classed as functional.
In assay [15] the target is Long-chain-fatty-acid--AMP ligase FadD28 (Mycobacterium tuberculosis, UniProt P9WQ59). The assay can be described thus: Fluorescence polarization aasay to screen for inhibitors that compete for the binding of FadD28 to a bisubstrate Measured in Biochemical System Using Plate Reader - 2147-01_Inhibitor_Dose_CherryPick_Activity. The assay is classed as functional, Mycobacterium tuberculosis H37Rv.

The target of assay [16] is ADP-ribosylation factor GTPase-activating protein 1 (Rattus norvegicus, UniProt Q62848). Briefly: Fluorescence polarization-based biochemical high throughput dose response screening assay to identify inhibitors of ADP-ribosylation factor GTPase activating protein 1 (ARFGAP1). The assay is classed as functional.
Assay [17] has as its target T2, Sentrin-specific protease 1 (Homo sapiens, UniProt Q9P0U3). Briefly: SENP1 catalytic domain blockers, concentration series – biochemical, kinetic FRET, dose response (AID 651697). The assay is classed as functional. The following applies: read-out: IC50_Mean.
Assay [18] concerns the target T2, Sentrin-specific protease 1. Briefly: Dose response confirmation of small molecule inhibitors of the catalytic domain of the SUMO protease, SENP1 in a FRET assay. The assay is classed as functional. The note with it: read-out: IC50_Mean.
Assay [19] can be described thus: NIH-3T3 fibroblast cytotoxicity, dose response, cytotoxicity control, cell-based, fluorescence, Alamar Blue, secondary assay (AID 2327).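 Note: NIH-3T3 mouse fibroblasts cultured with fluconazole at 8 µg/mL.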 The assay is classed as functional.
The nature of assay [20]: fluconazole-exposed Candida albicans growth modulators – fluorescence, retest, confirmation (AID 2467). In kind it is functional, cell-based.
The nature of assay [21]: viability loss in HeLa cells – cytotoxicity control for MgcRacGAP inhibitor project, dose response (AID 624300). The assay is classed as functional.
Assay [22] addresses T3, Rac GTPase-activating protein 1 (Homo sapiens, UniProt Q9H0H5).
T3 sequence (Q9H0H5 whole entry): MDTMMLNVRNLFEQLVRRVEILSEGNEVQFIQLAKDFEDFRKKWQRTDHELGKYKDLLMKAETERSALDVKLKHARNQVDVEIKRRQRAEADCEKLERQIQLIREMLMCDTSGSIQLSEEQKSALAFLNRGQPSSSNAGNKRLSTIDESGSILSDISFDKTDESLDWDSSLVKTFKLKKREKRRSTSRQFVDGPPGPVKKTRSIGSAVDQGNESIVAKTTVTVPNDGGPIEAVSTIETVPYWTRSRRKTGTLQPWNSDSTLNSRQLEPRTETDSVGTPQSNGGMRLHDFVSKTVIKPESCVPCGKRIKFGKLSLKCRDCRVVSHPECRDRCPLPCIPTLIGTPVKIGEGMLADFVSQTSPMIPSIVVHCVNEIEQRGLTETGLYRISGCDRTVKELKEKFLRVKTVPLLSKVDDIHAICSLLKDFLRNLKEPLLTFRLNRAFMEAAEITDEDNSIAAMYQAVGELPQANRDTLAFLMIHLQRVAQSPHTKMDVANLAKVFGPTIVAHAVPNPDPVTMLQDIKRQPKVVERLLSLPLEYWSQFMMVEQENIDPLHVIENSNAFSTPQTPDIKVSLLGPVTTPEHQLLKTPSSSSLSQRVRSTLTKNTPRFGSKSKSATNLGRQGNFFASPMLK
The assay can be described thus: blockers of MgcRacGAP-driven Rac1 GTP hydrolysis – biochemical, ADP Hunter fluorescence, primary and confirmatory, confirmation (AID 624330). In kind it is functional.

For assay [23], the target named is SWI/SNF-related matrix-associated actin-dependent regulator of chromatin subfamily A member 2 (Homo sapiens, UniProt P51531). Briefly: Luminescence-based cell-based high throughput dose response assay to identify activators of the function of SWI/SNF related, matrix associated, actin dependent regulator of chromatin, subfamily a, member 2 (SMARCA2, BRM). In kind it is functional.

Assay [24] can be described thus: Counterscreen for activators of the function of SWI/SNF related, matrix associated, actin dependent regulator of chromatin, subfamily a, member 2 (SMARCA2, BRM): Luminescence-based cell-based high throughput dose response assay to identify non-selective compounds using the VP16 reporter assay. In kind it is functional.

T1 sequence (P11940 whole entry): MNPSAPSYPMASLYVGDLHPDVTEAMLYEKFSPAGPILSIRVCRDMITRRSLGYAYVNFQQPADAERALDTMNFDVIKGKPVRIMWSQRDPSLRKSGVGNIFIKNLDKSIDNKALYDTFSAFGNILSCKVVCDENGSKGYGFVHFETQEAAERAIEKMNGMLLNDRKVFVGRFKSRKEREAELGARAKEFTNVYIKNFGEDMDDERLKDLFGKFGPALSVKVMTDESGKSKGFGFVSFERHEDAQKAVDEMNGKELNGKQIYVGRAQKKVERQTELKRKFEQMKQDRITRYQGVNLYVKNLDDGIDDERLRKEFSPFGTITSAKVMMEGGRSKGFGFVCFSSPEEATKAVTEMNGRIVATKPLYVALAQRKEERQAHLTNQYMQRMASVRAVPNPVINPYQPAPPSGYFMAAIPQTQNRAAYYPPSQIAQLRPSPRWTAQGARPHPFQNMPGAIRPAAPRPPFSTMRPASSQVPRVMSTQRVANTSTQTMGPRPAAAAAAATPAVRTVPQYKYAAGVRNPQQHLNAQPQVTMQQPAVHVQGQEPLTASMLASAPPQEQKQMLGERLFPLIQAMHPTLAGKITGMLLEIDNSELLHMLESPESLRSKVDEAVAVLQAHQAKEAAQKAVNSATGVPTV
T2 sequence (Q9P0U3 whole entry, the tested form may be a part): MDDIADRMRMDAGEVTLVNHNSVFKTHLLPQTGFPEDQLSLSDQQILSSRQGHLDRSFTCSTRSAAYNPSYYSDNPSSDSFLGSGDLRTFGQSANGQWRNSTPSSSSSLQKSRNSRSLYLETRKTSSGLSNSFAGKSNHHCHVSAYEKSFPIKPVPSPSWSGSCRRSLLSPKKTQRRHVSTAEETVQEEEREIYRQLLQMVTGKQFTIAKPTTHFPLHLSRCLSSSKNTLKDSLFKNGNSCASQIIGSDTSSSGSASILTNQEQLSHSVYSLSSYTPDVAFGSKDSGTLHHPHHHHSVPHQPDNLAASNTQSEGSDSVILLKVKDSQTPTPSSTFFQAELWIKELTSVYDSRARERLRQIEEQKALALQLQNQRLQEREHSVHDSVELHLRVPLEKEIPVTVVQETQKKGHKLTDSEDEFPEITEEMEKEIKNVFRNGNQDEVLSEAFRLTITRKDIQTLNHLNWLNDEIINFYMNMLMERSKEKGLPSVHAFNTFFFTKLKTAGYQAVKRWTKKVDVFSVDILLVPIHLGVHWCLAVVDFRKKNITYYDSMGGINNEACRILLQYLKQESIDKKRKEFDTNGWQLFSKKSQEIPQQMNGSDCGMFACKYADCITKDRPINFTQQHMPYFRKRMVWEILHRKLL
Long-chain-fatty-acid--AMP ligase FadD28, sequence (P9WQ59 whole entry): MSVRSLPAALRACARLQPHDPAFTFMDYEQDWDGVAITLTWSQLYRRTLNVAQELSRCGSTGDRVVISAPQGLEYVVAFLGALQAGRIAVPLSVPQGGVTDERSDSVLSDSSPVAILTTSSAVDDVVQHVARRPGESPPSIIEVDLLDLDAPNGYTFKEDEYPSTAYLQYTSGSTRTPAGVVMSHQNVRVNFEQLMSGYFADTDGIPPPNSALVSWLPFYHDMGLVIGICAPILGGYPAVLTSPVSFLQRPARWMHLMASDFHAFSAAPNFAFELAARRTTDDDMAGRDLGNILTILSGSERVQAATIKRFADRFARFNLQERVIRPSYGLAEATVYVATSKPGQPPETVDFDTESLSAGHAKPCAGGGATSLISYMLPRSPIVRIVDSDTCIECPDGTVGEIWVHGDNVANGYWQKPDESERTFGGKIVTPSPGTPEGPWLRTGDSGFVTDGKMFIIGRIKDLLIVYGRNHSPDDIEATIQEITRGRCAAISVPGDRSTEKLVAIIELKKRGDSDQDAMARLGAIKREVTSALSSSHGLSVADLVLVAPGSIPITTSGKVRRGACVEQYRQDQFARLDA
ADP-ribosylation factor GTPase-activating protein 1, sequence (Q62848 whole entry, the tested form may be a part): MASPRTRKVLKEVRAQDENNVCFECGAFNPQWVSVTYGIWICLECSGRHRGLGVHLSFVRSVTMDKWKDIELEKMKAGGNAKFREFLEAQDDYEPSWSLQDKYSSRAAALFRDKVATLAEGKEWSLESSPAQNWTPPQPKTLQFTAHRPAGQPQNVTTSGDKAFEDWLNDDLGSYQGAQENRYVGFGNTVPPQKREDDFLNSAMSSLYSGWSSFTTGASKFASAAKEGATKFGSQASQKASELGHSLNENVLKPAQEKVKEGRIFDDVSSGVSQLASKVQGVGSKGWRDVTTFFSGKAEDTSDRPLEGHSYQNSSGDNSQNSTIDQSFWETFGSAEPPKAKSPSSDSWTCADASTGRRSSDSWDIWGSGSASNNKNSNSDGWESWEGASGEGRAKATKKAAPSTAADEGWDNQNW
SWI/SNF-related matrix-associated actin-dependent regulator of chromatin subfamily A member 2, sequence (P51531 whole entry): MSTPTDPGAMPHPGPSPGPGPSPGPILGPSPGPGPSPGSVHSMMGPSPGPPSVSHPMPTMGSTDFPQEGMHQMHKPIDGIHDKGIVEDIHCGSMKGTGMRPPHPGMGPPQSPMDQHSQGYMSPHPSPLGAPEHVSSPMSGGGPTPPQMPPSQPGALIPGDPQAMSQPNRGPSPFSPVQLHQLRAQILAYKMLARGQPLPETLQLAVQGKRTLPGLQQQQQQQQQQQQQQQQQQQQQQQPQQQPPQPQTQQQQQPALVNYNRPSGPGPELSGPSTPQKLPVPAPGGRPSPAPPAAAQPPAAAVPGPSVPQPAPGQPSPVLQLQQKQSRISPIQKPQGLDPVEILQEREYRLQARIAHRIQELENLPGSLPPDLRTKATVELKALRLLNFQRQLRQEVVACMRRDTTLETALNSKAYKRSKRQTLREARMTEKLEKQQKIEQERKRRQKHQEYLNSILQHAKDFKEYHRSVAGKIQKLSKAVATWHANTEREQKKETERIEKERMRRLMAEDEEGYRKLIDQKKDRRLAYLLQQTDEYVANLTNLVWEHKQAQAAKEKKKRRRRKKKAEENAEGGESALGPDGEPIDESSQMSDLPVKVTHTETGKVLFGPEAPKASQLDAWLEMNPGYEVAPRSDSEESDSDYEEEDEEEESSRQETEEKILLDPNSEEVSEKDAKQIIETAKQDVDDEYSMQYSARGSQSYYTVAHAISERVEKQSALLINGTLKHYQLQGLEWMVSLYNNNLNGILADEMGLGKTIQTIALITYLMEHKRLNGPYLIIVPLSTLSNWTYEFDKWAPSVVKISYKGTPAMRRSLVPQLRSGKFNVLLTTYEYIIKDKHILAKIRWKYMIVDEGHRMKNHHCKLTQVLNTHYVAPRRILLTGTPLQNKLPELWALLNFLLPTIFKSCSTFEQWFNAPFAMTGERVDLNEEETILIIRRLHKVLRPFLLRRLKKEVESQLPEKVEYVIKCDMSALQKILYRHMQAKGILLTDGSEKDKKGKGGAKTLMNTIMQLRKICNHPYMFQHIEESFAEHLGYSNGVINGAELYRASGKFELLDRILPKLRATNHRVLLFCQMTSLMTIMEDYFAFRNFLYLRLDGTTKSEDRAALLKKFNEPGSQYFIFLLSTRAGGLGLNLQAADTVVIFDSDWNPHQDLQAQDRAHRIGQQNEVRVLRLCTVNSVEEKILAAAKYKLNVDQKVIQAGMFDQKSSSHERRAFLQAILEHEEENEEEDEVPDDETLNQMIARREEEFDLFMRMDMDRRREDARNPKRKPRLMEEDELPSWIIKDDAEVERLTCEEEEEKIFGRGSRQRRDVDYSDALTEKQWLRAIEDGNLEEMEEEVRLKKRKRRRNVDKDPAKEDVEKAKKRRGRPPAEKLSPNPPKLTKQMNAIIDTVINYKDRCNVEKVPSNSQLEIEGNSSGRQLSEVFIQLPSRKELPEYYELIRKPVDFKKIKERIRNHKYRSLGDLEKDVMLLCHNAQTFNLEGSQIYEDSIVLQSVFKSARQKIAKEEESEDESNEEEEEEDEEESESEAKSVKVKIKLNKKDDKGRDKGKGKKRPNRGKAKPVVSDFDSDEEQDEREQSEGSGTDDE
Nonstructural protein 1, sequence (Q194T2 whole entry): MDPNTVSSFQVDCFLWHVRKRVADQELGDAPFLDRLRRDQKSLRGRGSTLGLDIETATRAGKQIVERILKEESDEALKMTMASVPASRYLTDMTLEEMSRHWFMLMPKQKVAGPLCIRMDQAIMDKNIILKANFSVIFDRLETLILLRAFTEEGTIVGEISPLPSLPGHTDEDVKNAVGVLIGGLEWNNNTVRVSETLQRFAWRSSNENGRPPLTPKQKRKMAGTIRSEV
Protein S100-A4, sequence (P26447 whole entry): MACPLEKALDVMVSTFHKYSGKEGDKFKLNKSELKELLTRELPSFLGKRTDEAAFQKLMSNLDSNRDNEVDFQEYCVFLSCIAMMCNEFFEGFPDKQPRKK
Fructose-bisphosphate aldolase, sequence (P9WQA3 whole entry): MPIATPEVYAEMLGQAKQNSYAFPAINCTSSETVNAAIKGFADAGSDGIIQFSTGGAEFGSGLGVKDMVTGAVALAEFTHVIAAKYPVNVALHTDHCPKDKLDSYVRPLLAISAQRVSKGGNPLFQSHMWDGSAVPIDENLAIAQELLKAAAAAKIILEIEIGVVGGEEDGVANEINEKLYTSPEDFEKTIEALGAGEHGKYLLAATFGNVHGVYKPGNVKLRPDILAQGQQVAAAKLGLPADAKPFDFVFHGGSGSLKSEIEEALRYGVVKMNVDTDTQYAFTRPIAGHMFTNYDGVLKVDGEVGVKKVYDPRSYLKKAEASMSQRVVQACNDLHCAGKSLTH

Usually EC50 stands for the concentration that produces a half-maximal response. `O=C(CSc1nc2ccccc2o1)c1cc2ccccc2oc1=O`: the EC50 in assay [1] was > 50 µM (active). The IC50 in assay [2] is > 50 µM (inconclusive); in assay [3] it was > 66 µM (inactive); in [4], > 66 µM (inactive); in assay [5] it was > 10 µM (inactive).
Broadly, the AC50 is the concentration at which the activity in the assay is half-maximal. For the compound `COC(=O)c1ccc(NCc2cc(O)ccc2O)cc1O`, in [6], the AC50 is 26.3 µM (active).
`CN1/C(=C\C=C2/SC(=S)NC2=O)C(C)(C)c2ccccc21`: the EC50 in assay [7] is 0.981 µM (active); in assay [8], 7.49 µM (active). The IC50 in [9] was 38.8 µM (active). For the same compound, the AC50 in assay [10] was 2.87 µM (active); in [11] it was 2.6 µM (active); in [12], 38.6 µM (active); in [13], 1.42 µM (active); in assay [14] it was 0.819 µM (active).
In the case of `CCc1cccc2c(C(=O)CSc3nncn3-c3ccc(OC)cc3)c[nH]c12`, the AC50 in [15] is > 100 µM (inactive).
As to `Cc1ccc2nc3c(O)n(CC(=O)Nc4ccccc4N4CCN(C)CC4)ncc-3c2c1`, the IC50 in [16] is 74 µM (inactive).
With `Cc1ccc(-n2cc(-c3ccc([N+](=O)[O-])cc3)[nH]c2=S)c(C)c1`, the IC50 was 54.1 µM (inactive) in assay [17] and 17.2 µM (active) in assay [18].
What is called CC50 is the concentration that lowers cell viability or growth by half. `COc1cc(/C=C(\C#N)c2nc3ccccc3[nH]2)ccc1O`: the values for the EC50 in assay [19] and in assay [20] were 49.9 µM (active) and 1.41 µM (active), respectively. The CC50 in assay [21] was 99.9 µM (active). Besides, the IC50 in assay [22] was 15.9 µM (active).
Take `Nc1ccc2c(c1)C(=O)c1cc(N)c(Cl)cc1-2`: the IC50 in assay [22] was 22.1 µM (active). Also, the EC50 in assay [23] and in assay [24] was > 91.2 µM (inactive) each time.
